Tests used:
[1] = target: T1, CYP2C8 (Homo sapiens, UniProt P10632); assay: CYP Inhibition Assay (CYP2C8, human liver microsomes, paclitaxel substrate); format: in vitro ADME; settings: pH 7.4; pooled human liver microsomes 0.1 mg/mL, probe substrate paclitaxel
T1 construct: Pooled human microsomes were obtained from Sekisui XenoTech, KS; tissue Sekisui XenoTech, KS; host or cells: pooled human liver microsomes
T1 sequence (P10632 1-490): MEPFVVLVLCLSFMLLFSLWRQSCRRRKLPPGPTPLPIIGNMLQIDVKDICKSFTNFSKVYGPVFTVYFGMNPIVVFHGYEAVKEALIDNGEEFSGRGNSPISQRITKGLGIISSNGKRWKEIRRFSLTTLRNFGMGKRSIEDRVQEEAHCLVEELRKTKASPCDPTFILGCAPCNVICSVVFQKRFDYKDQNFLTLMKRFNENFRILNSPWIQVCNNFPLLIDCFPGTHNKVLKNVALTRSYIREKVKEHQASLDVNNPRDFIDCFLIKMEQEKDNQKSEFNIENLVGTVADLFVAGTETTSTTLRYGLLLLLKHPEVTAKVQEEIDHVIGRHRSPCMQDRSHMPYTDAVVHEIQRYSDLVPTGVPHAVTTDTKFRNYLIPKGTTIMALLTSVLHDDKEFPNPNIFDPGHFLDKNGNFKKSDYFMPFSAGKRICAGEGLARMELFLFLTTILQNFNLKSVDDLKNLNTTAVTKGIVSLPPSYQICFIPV
Outline: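 CYP2C8 activity read as 6α-hydroxypaclitaxel formation by LC-MS/MS, with % inhibition versus vehicle control. Reactions ran 5 min at 37° C, pH 7.4 phosphate buffer, 0.1 mg/mL pooled human liver microsomes, 1 mM NADPH, duplicate wells.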

[2] = target: T2, GR (Homo sapiens, UniProt P04150); assay: In Vitro GR Luciferase Reporter Assay (antagonist mode, CHO-K1-GR-MMTV-Luc reporter cells); format: cell-based; settings: antagonist mode, 10 nM Dexamethasone
T2 construct: expressed in transfected cells; host or cells: CHO-K1
T2 sequence (P04150 1-777): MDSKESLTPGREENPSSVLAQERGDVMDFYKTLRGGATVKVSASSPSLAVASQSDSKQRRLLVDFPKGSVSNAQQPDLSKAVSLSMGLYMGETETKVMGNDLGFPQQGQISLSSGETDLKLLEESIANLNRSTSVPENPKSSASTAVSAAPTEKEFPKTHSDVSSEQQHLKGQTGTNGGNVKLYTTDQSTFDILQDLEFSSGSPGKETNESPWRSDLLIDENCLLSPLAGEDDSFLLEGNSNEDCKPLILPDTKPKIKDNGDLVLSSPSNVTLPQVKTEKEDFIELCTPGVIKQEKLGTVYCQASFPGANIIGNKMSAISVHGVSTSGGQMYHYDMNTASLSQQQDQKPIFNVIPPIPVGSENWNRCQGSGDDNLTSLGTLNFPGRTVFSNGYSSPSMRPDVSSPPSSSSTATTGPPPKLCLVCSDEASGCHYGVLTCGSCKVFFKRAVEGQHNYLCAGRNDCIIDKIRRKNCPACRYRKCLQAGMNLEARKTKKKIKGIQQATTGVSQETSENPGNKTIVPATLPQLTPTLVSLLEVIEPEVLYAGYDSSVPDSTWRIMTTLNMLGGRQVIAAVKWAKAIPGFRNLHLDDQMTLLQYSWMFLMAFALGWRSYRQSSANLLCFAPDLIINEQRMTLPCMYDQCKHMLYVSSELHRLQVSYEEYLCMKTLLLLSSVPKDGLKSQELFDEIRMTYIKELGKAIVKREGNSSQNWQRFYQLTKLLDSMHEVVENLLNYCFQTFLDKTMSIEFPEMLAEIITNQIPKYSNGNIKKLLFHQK
Outline: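 Antagonist mode: compounds (8 serial 1:5 dilutions) added to GR-MMTV-luciferase CHO-K1 reporter cells co-exposed to 10 nM dexamethasone final, in phenol red-free DMEM plus 10% CSS. After roughly 18-24 h at 37° C, OneGlo luminescence read and IC50 calculated.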

## Cn1ccc(S(=O)(=O)[C@H]2CCC3=Cc4c(cnn4-c4ccc(F)cc4)C[C@]3(C(=O)c3ccc(C(F)(F)F)cn3)C2)n1 [Example 272, ((4aS,6S)-1-(4-fluorophenyl)-6-((1-methyl-1H-pyrazol-3-yl)sulfonyl)-1,4,5,6,7,8-hexahydro-4aH-benzo[f]indazol-4a-yl)(5-(trifluoromethyl)pyridin-2-yl)methanone]
[1]
  inhibition at 5 min: ≤ 25%
[2]
  IC50: ≤ 100 nM

## O=C(c1cc(C(F)(F)F)ccn1)[C@]12Cc3cnn(-c4ccc(F)cc4)c3C=C1CC[C@H](N(CC1CC1)S(=O)(=O)c1ccc(F)cc1)C2 [Example 273, N-(cyclopropylmethyl)-4-fluoro-N-((4aS,6S)-1-(4-fluorophenyl)-4a-(4-(trifluoromethyl)picolinoyl)-4,4a,5,6,7,8-hexahydro-1H-benzo[f]indazol-6-yl)benzenesulfonamide]
[1]
  inhibition at 5 min: ≤ 25%
[2]
  IC50: ≤ 100 nM

## CC(C)N([C@H]1CCC2=Cc3c(cnn3-c3ccc(F)cc3)C[C@]2(C(=O)c2cc(C(F)(F)F)ccn2)C1)S(=O)(=O)c1ccc(Cl)nc1 [Example 279, 6-chloro-N-((4aS,6S)-1-(4-fluorophenyl)-4a-(4-(trifluoromethyl)picolinoyl)-4,4a,5,6,7,8-hexahydro-1H-benzo[f]indazol-6-yl)-N-isopropylpyridine-3-sulfonamide]
[1]
  inhibition at 5 min: 50 to 75%
[2]
  IC50: ≤ 100 nM

## Cn1cc(S(=O)(=O)N(CC(F)(F)F)[C@H]2CCC3=Cc4c(cnn4-c4ccc(F)cc4)C[C@]3(C(=O)c3cc(Cl)ccn3)C2)cn1 [Example 280, N-((4aS,6S)-4a-(4-chloropicolinoyl)-1-(4-fluorophenyl)-4,4a,5,6,7,8-hexahydro-1H-benzo[f]indazol-6-yl)-1-methyl-N-(2,2,2-trifluoroethyl)-1H-pyrazole-4-sulfonamide]
[1]
  inhibition at 5 min: 25 to 50%
[2]
  IC50: ≤ 100 nM

## CC(C)N([C@H]1CCC2=Cc3c(cnn3-c3ccc(F)cc3)C[C@]2(C(=O)c2ncc(C(F)(F)F)s2)C1)S(=O)(=O)c1cn(C)nn1 [Example 282, N-((4aS,6S)-1-(4-fluorophenyl)-4a-(5-(trifluoromethyl)thiazole-2-carbonyl)-4,4a,5,6,7,8-hexahydro-1H-benzo[f]indazol-6-yl)-N-isopropyl-1-methyl-1H-1,2,3-triazole-4-sulfonamide]
[1]
  inhibition at 5 min: 25 to 50%
[2]
  IC50: ≤ 100 nM

## CC(C)N([C@H]1CCC2=Cc3c(cnn3-c3ccc(F)cc3)C[C@]2(C(=O)c2ncc(C(F)(F)F)s2)C1)S(=O)(=O)c1ccc(Cl)nc1 [Example 283, 6-chloro-N-((4aS,6S)-1-(4-fluorophenyl)-4a-(5-(trifluoromethyl)thiazole-2-carbonyl)-4,4a,5,6,7,8-hexahydro-1H-benzo[f]indazol-6-yl)-N-isopropylpyridine-3-sulfonamide]
[1]
  inhibition at 5 min: ≤ 25%
[2]
  IC50: ≤ 100 nM

## CC(C)N([C@H]1CCC2=Cc3c(cnn3-c3ccc(F)cc3)C[C@]2(C(=O)c2cc(C(F)(F)F)ccn2)C1)S(=O)(=O)c1cn(C)nn1 [Example 286, N-((4aS,6S)-1-(4-fluorophenyl)-4a-(4-(trifluoromethyl)picolinoyl)-4,4a,5,6,7,8-hexahydro-1H-benzo[f]indazol-6-yl)-N-isopropyl-1-methyl-1H-1,2,3-triazole-4-sulfonamide]
[1]
  inhibition at 5 min: 75 to 90%
[2]
  IC50: ≤ 100 nM

## O=C(c1cc(C(F)(F)F)ccn1)[C@]12Cc3cnn(-c4ccc(F)cc4)c3C=C1CC[C@H](N(C1CC1)S(=O)(=O)c1ccc(Cl)cn1)C2 [Example 287, 5-chloro-N-cyclopropyl-N-((4aS,6S)-1-(4-fluorophenyl)-4a-(4-(trifluoromethyl)picolinoyl)-4,4a,5,6,7,8-hexahydro-1H-benzo[f]indazol-6-yl)pyridine-2-sulfonamide]
[1]
  inhibition at 5 min: 25 to 50%
[2]
  IC50: ≤ 100 nM

## Cn1ccc(S(=O)(=O)N([C@H]2CCC3=Cc4c(cnn4-c4ccc(F)cc4)C[C@]3(C(=O)c3cc(Cl)ccn3)C2)[C@H]2C[C@@](C)(O)C2)n1 [Example 288, N-((4aS,6S)-4a-(4-chloropicolinoyl)-1-(4-fluorophenyl)-4,4a,5,6,7,8-hexahydro-1H-benzo[f]indazol-6-yl)-N-((1s,3R)-3-hydroxy-3-methylcyclobutyl)-1-methyl-1H-pyrazole-3-sulfonamide]
[1]
  inhibition at 5 min: ≤ 25%
[2]
  IC50: ≤ 100 nM

## Cn1ccc(S(=O)(=O)[C@@]2(F)CCC3=Cc4c(cnn4-c4ccc(F)cc4)C[C@]3(C(=O)c3ccc(C(F)(F)F)cn3)C2)n1 [Example 289, ((4aS,6S)-6-fluoro-1-(4-fluorophenyl)-6-((1-methyl-1H-pyrazol-3-yl)sulfonyl)-1,4,5,6,7,8-hexahydro-4aH-benzo[f]indazol-4a-yl)(5-(trifluoromethyl)pyridin-2-yl)methanone]
[1]
  inhibition at 5 min: ≤ 25%
[2]
  IC50: ≤ 100 nM

## Cn1cc(S(=O)(=O)N(CC(F)(F)F)[C@H]2CCC3=Cc4c(cnn4-c4ccc(F)cc4)C[C@]3(C(=O)c3ncc(C(F)(F)F)s3)C2)nn1 [Example 290, N-((4aS,6S)-1-(4-fluorophenyl)-4a-(5-(trifluoromethyl)thiazole-2-carbonyl)-4,4a,5,6,7,8-hexahydro-1H-benzo[f]indazol-6-yl)-1-methyl-N-(2,2,2-trifluoroethyl)-1H-1,2,3-triazole-4-sulfonamide]
[1]
  inhibition at 5 min: 25 to 50%
[2]
  IC50: ≤ 100 nM

## Cn1cnc(S(=O)(=O)N(CC(F)(F)F)[C@H]2CCC3=Cc4c(cnn4-c4ccc(F)cc4)C[C@]3(C(=O)c3ncc(C(F)(F)F)s3)C2)c1 [Example 293, N-((4aS,6S)-1-(4-fluorophenyl)-4a-(5-(trifluoromethyl)thiazole-2-carbonyl)-4,4a,5,6,7,8-hexahydro-1H-benzo[f]indazol-6-yl)-1-methyl-N-(2,2,2-trifluoroethyl)-1H-imidazole-4-sulfonamide]
[1]
  inhibition at 5 min: ≤ 25%
[2]
  IC50: ≤ 100 nM

## O=C(c1cc(C(F)(F)F)ccn1)[C@]12Cc3cnn(-c4ccc(F)cc4)c3C=C1CC[C@H](N(CC1CC1)S(=O)(=O)c1ccc(Cl)nc1)C2 [Example 294, 6-chloro-N-(cyclopropylmethyl)-N-((4aS,6S)-1-(4-fluorophenyl)-4a-(4-(trifluoromethyl)picolinoyl)-4,4a,5,6,7,8-hexahydro-1H-benzo[f]indazol-6-yl)pyridine-3-sulfonamide]
[1]
  inhibition at 5 min: ≤ 25%
[2]
  IC50: ≤ 100 nM

## CC(C)N([C@H]1CCC2=Cc3c(cnn3-c3ccc(F)cc3)C[C@]2(C(=O)c2cc(F)ccn2)C1)S(=O)(=O)c1cn(C)nn1 [Example 295, N-((4aS,6S)-1-(4-fluorophenyl)-4a-(4-fluoropicolinoyl)-4,4a,5,6,7,8-hexahydro-1H-benzo[f]indazol-6-yl)-N-isopropyl-1-methyl-1H-1,2,3-triazole-4-sulfonamide]
[1]
  inhibition at 5 min: 50 to 75%
[2]
  IC50: ≤ 100 nM

## CC(C)N([C@H]1CCC2=Cc3c(cnn3-c3ccc(F)cc3)C[C@]2(C(=O)c2cc(Cl)ccn2)C1)S(=O)(=O)c1cn(C)nn1 [Example 296, N-((4aS,6S)-4a-(4-chloropicolinoyl)-1-(4-fluorophenyl)-4,4a,5,6,7,8-hexahydro-1H-benzo[f]indazol-6-yl)-N-isopropyl-1-methyl-1H-1,2,3-triazole-4-sulfonamide]
[1]
  inhibition at 5 min: 50 to 75%
[2]
  IC50: ≤ 100 nM

Reference: patent publication US20210122730A1, “GLUCOCORTICOID RECEPTOR MODULATORS” (ORIC Pharmaceuticals, Inc., priority 2017, published 2021)
